Legend:
human H3 receptor = molecular target: T1, human H3 receptor (Homo sapiens, UniProt Q9Y5N1); test: H3 receptor binding (N-[3H]-α-methylhistamine displacement); details: membranes of SK-N-MC cells expressing cloned human H3 receptor, 0.8 nM N-[3H]-α-methylhistamine, 60 min at 25° C.
T1 construct: expressed in transfected cells
Protocol: Briefly, cell pellets from SK-N-MC cells expressing the human H3 receptor were homogenized in 50 mM Tris-HCl/5 mM EDTA and re-centrifuged at 30,000 g for 30 min. Pellets were re-homogenized in 50 mM Tris/6 mM EDTA (pH 7.4). Membranes were incubated with 0.8 nM N-[^3H]-α-methylhistamine plus/minus test compounds for 60 min at 25° C. and harvested by rapid filtration over GF/C glass fiber filters (pretreated with 0.3% polyethylenimine) followed by four washes with ice-cold buffer. Nonspecific binding was defined in the presence of 10 μM histamine.

Rat SERT = molecular target: T2, Rat SERT (Rattus norvegicus, UniProt P31652); test: Rat brain SERT binding ([3H]-citalopram displacement); details: rat brain membranes without cerebellum, 0.6 nM [3H]-citalopram, 60 min at 25° C.; read-out: Rat SERT Ki
T2 construct: A rat brain without cerebellum (Zivic Laboratories, Inc.—Pittsburgh, Pa.) was homogenized; tissue Zivic Laboratories, Inc; host or cells: rat brain without cerebellum, membranes
T2 sequence (P31652 whole entry): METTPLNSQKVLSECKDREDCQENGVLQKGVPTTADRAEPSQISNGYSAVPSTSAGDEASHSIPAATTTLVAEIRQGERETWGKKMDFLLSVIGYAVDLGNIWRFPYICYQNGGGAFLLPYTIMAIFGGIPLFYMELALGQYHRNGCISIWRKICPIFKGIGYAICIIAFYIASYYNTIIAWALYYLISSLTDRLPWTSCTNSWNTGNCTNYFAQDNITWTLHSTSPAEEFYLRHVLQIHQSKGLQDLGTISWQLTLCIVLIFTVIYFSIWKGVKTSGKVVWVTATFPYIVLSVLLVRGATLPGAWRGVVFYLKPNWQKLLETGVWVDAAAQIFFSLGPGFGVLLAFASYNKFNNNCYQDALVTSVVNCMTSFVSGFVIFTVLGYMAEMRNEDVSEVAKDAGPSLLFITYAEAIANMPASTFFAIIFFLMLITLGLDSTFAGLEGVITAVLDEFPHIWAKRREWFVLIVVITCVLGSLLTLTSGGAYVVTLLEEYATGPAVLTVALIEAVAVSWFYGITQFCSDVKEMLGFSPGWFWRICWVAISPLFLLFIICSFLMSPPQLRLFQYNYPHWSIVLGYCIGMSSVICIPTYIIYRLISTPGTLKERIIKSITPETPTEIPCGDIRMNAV
Protocol: The supernatant was removed and re-centrifuged at 15,000 rpm for 30 min. […] Membranes were incubated with 0.6 nM [^3H]-Citalopram plus/minus test compounds for 60 min at 25° C. and harvested by rapid filtration over GF/C glass fiber filters (pretreated with 0.3% polyethylenimine) followed by four washes with ice-cold buffer.

T1 sequence (Q9Y5N1 whole entry): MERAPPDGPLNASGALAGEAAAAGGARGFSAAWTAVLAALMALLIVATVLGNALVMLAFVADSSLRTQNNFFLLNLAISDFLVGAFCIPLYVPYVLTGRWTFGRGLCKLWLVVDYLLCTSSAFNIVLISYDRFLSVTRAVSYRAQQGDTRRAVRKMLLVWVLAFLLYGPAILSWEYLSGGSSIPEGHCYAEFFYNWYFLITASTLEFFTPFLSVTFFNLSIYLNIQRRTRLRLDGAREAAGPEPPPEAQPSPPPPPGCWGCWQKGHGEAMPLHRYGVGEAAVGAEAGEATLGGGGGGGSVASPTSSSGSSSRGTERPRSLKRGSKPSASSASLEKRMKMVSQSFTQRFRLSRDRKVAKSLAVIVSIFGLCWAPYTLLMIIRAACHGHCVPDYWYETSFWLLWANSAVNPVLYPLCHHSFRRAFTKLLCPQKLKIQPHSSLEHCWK

Row | Compound | Ki (human H3 receptor) [nM] | Ki (Rat SERT) [nM]
1 | C[C@H]1COCCN1CCCOc1ccc2c(c1)CN(C)CC2c1ccc(N2CCOCC2)cc1 (stereo partly drawn) [Example 133, 2-Methyl-7-[3-(3S-methyl-morpholin-4-yl)-propoxy]-4-(4-morpholin-4-yl-phenyl)-1,2,3,4-tetrahydro-isoquinoline] | 2 | 50
2 | COc1ccc(C2CN(C)Cc3cc(OCCC4CCCN4C)ccc32)cc1 (single isomer, unassigned) [Example 240B, 4-(4-Methoxy-phenyl)-2-methyl-7-[2-(1-methyl-pyrrolidin-2-yl)-ethoxy]-1,2,3,4-tetrahydro-isoquinoline] | 21 | 5
3 | CN1Cc2cc(OCCCN3CCOCC3)ccc2C(c2ccc(SC(F)(F)F)cc2)C1 (centres unmarked) [Example 218, 2-Methyl-7-(3-morpholin-4-yl-propoxy)-4-(4-trifluoromethylsulfanyl-phenyl)-1,2,3,4-tetrahydro-isoquinoline] | 38 | 36
4 | COc1cccc(C2CN(C)Cc3cc(OC4CCN(C)CC4)ccc32)c1 (centres unmarked) [Example 97, 4-(3-Methoxy-phenyl)-2-methyl-7-(1-methyl-piperidin-4-yloxy)-1,2,3,4-tetrahydro-isoquinoline] | 6 | 45
5 | COc1ccc(C2CN(C)Cc3cc(OCC4CCN(CC(C)C)CC4)ccc32)c(F)c1 (centres unmarked) [Example 115, 4-(2-Fluoro-4-methoxy-phenyl)-7-(1-isobutyl-piperidin-4-ylmethoxy)-2-methyl-1,2,3,4-tetrahydro-isoquinoline] | 10 | 8
6 | CCCN1CCC(COc2ccc3c(c2)CN(C)CC3c2ccc(OC)cc2F)CC1 (centres unmarked) [Example 114, 4-(2-Fluoro-4-methoxy-phenyl)-2-methyl-7-(1-propyl-piperidin-4-ylmethoxy)-1,2,3,4-tetrahydro-isoquinoline] | 4 | 9
7 | CSc1ccc(C2CN(C)Cc3cc(OCC4CCN(CCF)CC4)ccc32)cc1 (centres unmarked) [Example 178, 7-[1-(2-Fluoro-ethyl)-piperidin-4-ylmethoxy]-2-methyl-4-(4-methylsulfanyl-phenyl)-1,2,3,4-tetrahydro-isoquinoline] | 18 | 6
8 | COc1ccc(C2CN(C)Cc3cc(OCCCN(C)C4CC4)ccc32)cc1 (centres unmarked) [Example 234, Cyclopropyl-{3-[4-(4-methoxy-phenyl)-2-methyl-1,2,3,4-tetrahydro-isoquinolin-7-yloxy]-propyl}-methyl-amine] | 3 | 3
9 | CCCNCCCOc1ccc2c(c1)CN(C)CC2c1ccc(OC)cc1 (centres unmarked) [Example 231, {3-[4-(4-Methoxy-phenyl)-2-methyl-1,2,3,4-tetrahydro-isoquinolin-7-yloxy]-propyl}-propyl-amine] | 61 | 2
10 | COc1ccc(C2CN(C)Cc3cc(OCCCNCCCO)ccc32)cc1 (centres unmarked) [Example 226, 3-{3-[4-(4-Methoxy-phenyl)-2-methyl-1,2,3,4-tetrahydro-isoquinolin-7-yloxy]-propylamino}-propan-1-ol] | 107 | 1
11 | CCNCCCOc1ccc2c(c1)CN(C)CC2c1ccc(OC)cc1 (centres unmarked) [Example 232, Ethyl-{3-[4-(4-methoxy-phenyl)-2-methyl-1,2,3,4-tetrahydro-isoquinolin-7-yloxy]-propyl}-amine] | 20 | 1
12 | COc1ccc(C2CN(C)Cc3cc(OC[C@H]4CNCCO4)ccc32)cc1 (stereo partly drawn) [Example 253, 4-(4-Methoxy-phenyl)-2-methyl-7-(morpholin-2R-ylmethoxy)-1,2,3,4-tetrahydro-isoquinoline] | 263 | 2
13 | COc1ccc(C2CN(C)Cc3cc(OC4CCN(CC#N)CC4)ccc32)cc1 (centres unmarked) [Example 242] | 124 | 6
14 | COc1ccc(C2CN(C)Cc3cc(OCCCN4CCN(c5nccs5)CC4)ccc32)cc1 (centres unmarked) [Example 200, 4-(4-Methoxy-phenyl)-2-methyl-7-[3-(4-thiazol-2-yl-piperazin-1-yl)-propoxy]-1,2,3,4-tetrahydro-isoquinoline] | 227 | 3
15 | CN1Cc2cc(OCCCN3CCC(F)CC3)ccc2C(c2ccc(Br)nc2)C1 (centres unmarked) [Example 186, 4-(6-Bromo-pyridin-3-yl)-7-[3-(4-fluoro-piperidin-1-yl)-propoxy]-2-methyl-1,2,3,4-tetrahydro-isoquinoline] | 6 | 10
16 | COc1ccc(C2CN(C)Cc3cc(OCC4CN(CCF)CCO4)ccc32)cc1 (mixture of isomers) [Example 258, 7-[4-(2-Fluoro-ethyl)-morpholin-2-ylmethoxy]-4-(4-methoxy-phenyl)-2-methyl-1,2,3,4-tetrahydro-isoquinoline] | 32 | 8

Row | Compound | Ki (human H3 receptor) [nM] | Ki (Rat SERT) [nM]
17 | CSc1ccc(C2CN(C)Cc3cc(OCCCN4CCC(F)CC4)ccc32)cn1 (centres unmarked) [Example 187, 7-[3-(4-Fluoro-piperidin-1-yl)-propoxy]-2-methyl-4-(6-methylsulfanyl-pyridin-3-yl)-1,2,3,4-tetrahydro-isoquinoline] | 5 | 3
18 | COc1ccc(C2CN(C)Cc3cc(OC4CCNCC4)ccc32)c(F)c1 (centres unmarked) [Example 150, 4-(2-Fluoro-4-methoxy-phenyl)-2-methyl-7-(piperidin-4-yloxy)-1,2,3,4-tetrahydro-isoquinoline] | 175 | 7
19 | COc1ccc(C2CN(C)Cc3cc(OCCCN4CCC(F)CC4)ccc32)cc1F (single isomer, unassigned) [Example 143, 4-(3-Fluoro-4-methoxy-phenyl)-7-[3-(4-fluoro-piperidin-1-yl)-propoxy]-2-methyl-1,2,3,4-tetrahydro-isoquinoline] | 4 | 18
20 | COCCN1CCN(CCCOc2ccc3c(c2)CN(C)CC3c2ccc(OC)cc2)CC1 (centres unmarked) [Example 209, 7-{3-[4-(2-Methoxy-ethyl)-piperazin-1-yl]-propoxy}-4-(4-methoxy-phenyl)-2-methyl-1,2,3,4-tetrahydro-isoquinoline] | 176 | 12
21 | CSc1ccc(C2CN(C)Cc3cc(OCC4CNCCO4)ccc32)cc1 (mixture of isomers) [Example 264, 2-Methyl-4-(4-methylsulfanyl-phenyl)-7-(morpholin-2-ylmethoxy)-1,2,3,4-tetrahydro-isoquinoline] | 3250 | 6
22 | C=CCNCCCOc1ccc2c(c1)CN(C)CC2c1ccc(OC)cc1 (centres unmarked) [Example 227, Allyl-{3-[4-(4-methoxy-phenyl)-2-methyl-1,2,3,4-tetrahydro-isoquinolin-7-yloxy]-propyl}-amine] | 52 | 1
23 | COc1ccc(C2CN(C)Cc3cc(OCC4CCNCC4)ccc32)cc1F (centres unmarked) [Example 81, 4-(3-Fluoro-4-methoxy-phenyl)-2-methyl-7-(piperidin-4-ylmethoxy)-1,2,3,4-tetrahydro-isoquinoline] | 70 | 1
24 | CSc1ccc(C2CN(C)Cc3cc(OC4CCN(CC#N)CC4)ccc32)cc1 (centres unmarked) [Example 245, {4-[2-Methyl-4-(4-methylsulfanyl-phenyl)-1,2,3,4-tetrahydro-isoquinolin-7-yloxy]-piperidin-1-yl}-acetonitrile] | 336 | 7
25 | C[C@H]1COCCN1CCCOc1ccc2c(c1)CN(C)CC2c1ccc(SC(F)(F)F)cc1 (stereo partly drawn) [Example 219, 2-Methyl-7-[3-(3S-methyl-morpholin-4-yl)-propoxy]-4-(4-trifluoromethylsulfanyl-phenyl)-1,2,3,4-tetrahydro-isoquinoline] | 33 | 39
26 | COc1ccc(C2CN(C)Cc3cc(OCCCN4CCS(=O)(=O)CC4)ccc32)cc1 (centres unmarked) [Example 27, 7-[3-(1,1-Dioxo-1λ^6-thiomorpholin-4-yl)-propoxy]-4-(4-methoxy-phenyl)-2-methyl-1,2,3,4-tetrahydro-isoquinoline] | 104 | 3
27 | CN1Cc2cc(OCCCN3CCC(F)CC3)ccc2C(c2ccccc2Cl)C1 (centres unmarked) [Example 132, 4-(2-Chloro-phenyl)-7-[3-(4-fluoro-piperidin-1-yl)-propoxy]-2-methyl-1,2,3,4-tetrahydro-isoquinoline] | 4 | 19
28 | COc1ccc(C2CN(C)Cc3cc(OC[C@@H]4CN(C5CC5)CCO4)ccc32)cc1 (single isomer, unassigned) [Example 260B, 7-(4-Cyclopropyl-morpholin-2S-ylmethoxy)-4-(4-methoxy-phenyl)-2-methyl-1,2,3,4-tetrahydro-isoquinoline] | 29 | 26
29 | COc1ccc(C2CN(C)Cc3cc(OCC4CCN(C5CCC5)CC4)ccc32)cc1F (centres unmarked) [Example 111, 7-(1-Cyclobutyl-piperidin-4-ylmethoxy)-4-(3-fluoro-4-methoxy-phenyl)-2-methyl-1,2,3,4-tetrahydro-isoquinoline] | 8 | 4
30 | COc1cccc(C2CN(C)Cc3cc(OCC4CCN(C5CCCC5)CC4)ccc32)c1 (centres unmarked) [Example 94, 7-(1-Cyclopentyl-piperidin-4-ylmethoxy)-4-(3-methoxy-phenyl)-2-methyl-1,2,3,4-tetrahydro-isoquinoline] | 4 | 15
31 | COc1ccc(C2CN(C)Cc3cc(OCCCNC(C4CC4)C4CC4)ccc32)cc1 (centres unmarked) [Example 131, Dicyclopropylmethyl-{3-[4-(4-methoxy-phenyl)-2-methyl-1,2,3,4-tetrahydro-isoquinolin-7-yloxy]-propyl}-amine] | 85 | 9
